Reference: PubChem BioAssay (NCI)
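Growth conditions: 96-well plates. Treatment: test compound, 48 hours, 5 concentrations. Analysis: linear interpolation between bracketing concentrations; unreached endpoints set to highest concentration. TGI is the concentration that stops growth completely.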

Tests used:
Assay in all cases: NCI-60 cell line screen, 48 h
[1] = tested on: M14 melanoma
[2] = tested on: NCI/ADR-RES ovarian
[3] = tested on: UO-31 renal
[4] = tested on: TK-10 renal
[5] = tested on: RPMI-8226 leukemia
[6] = tested on: MOLT-4 leukemia
[7] = tested on: UACC-257 melanoma
[8] = tested on: MCF7 breast
[9] = tested on: HCT-116 colon
[10] = tested on: PC-3 prostate
[11] = tested on: DU-145 prostate
[12] = tested on: SR leukemia
[13] = tested on: ACHN renal
[14] = tested on: CCRF-CEM leukemia
[15] = tested on: SF-539 CNS
[16] = tested on: HCT-15 colon
[17] = tested on: LOX IMVI melanoma
[18] = tested on: HOP-92 NSCLC
[19] = tested on: IGROV1 ovarian
[20] = tested on: HL-60(TB) leukemia
[21] = tested on: HT29 colon
[22] = tested on: NCI-H23 lung
[23] = tested on: OVCAR-5 ovarian
[24] = tested on: A498 renal
[25] = tested on: SNB-19 CNS
[26] = tested on: RXF 393 renal
[27] = tested on: K-562 leukemia
[28] = tested on: UACC-62 melanoma
[29] = tested on: T-47D breast
[30] = tested on: HOP-62 NSCLC
[31] = tested on: HS 578T breast
[32] = tested on: MDA-MB-231 breast
[33] = tested on: SK-MEL-5 melanoma
[34] = tested on: 786-0 renal
[35] = tested on: OVCAR-4 ovarian
[36] = tested on: OVCAR-8 ovarian
[37] = tested on: SF-295 CNS
[38] = tested on: MDA-MB-435
[39] = tested on: BT-549 breast
[40] = tested on: EKVX NSCLC
[41] = tested on: CAKI-1 renal
[42] = tested on: SK-MEL-2 melanoma
[43] = tested on: NCI-H522 lung
[44] = tested on: NCI-H226 lung
[45] = tested on: A549 NSCLC
[46] = tested on: U251 CNS
[47] = tested on: SN12C renal
[48] = tested on: COLO 205 colon
[49] = tested on: SF-268 CNS
[50] = tested on: SW-620 colon
[51] = tested on: HCC-2998 colon
[52] = tested on: OVCAR-3 ovarian
[53] = tested on: MDA-N
[54] = tested on: NCI-H460 lung
[55] = tested on: KM12 colon
[56] = tested on: SNB-75 CNS

Measured: TGI

O=C(O)CN1CCN(CC(=O)O)CCN(CC(=O)O)CCN(CC(=O)O)CC1
> 100 µM: all assays above
